{"source": "patent US9822344B2", "about": "“Method for culturing pluripotent stem cells” (OSAKA UNIVERSITY, priority 2012, dated 2017)", "assay_type_in_all_cases": "cell-based, human", "key": {"iPS cells": {"test_system": "iPS cells", "experiment": "Rac-1 inhibitor added in culture on SNL feeder cells", "conditions": "Rac-1 inhibitor 50 or 100 μM added at day 3, same as without inhibitor", "method": "Culture was performed by using SNL feeder cells as the feeder cells and adding the Rac-1 inhibitor (50 or 100 μM) at three days after the culture start (day 3)."}, "iPS cells: Tic (Np 39) [1]": {"test_system": "iPS cells: Tic (Np 39)", "experiment": "Influences of feeder-free culture on iPS cells: Rac-1 inhibitor added", "conditions": "Rac-1 inhibitor 100 or 150 μM at day 3 (FIG. 19: 150 μM), Synthemax Surface", "method": "(§1) Synthemax Surface (trade name, manufactured by Corning Inc.) was used as a culture surface, and iPS cells were seeded thereover. The culture medium was exchanged with a maintenance medium every 24 hours until day 7. After the culture, the expression of Oct3/4 of the cultured cells was confirmed by immunocytostaining, and DAPI staining was performed. The used cells and media, as well as the culture conditions are as follows.\nmTeSR (Trade Mark) 1 medium (trade name, manufactured by STEMCELL, Technologies)\nNext, cells were cultured and observed in the same manner as those described above except that the Rac-1 inhibitor was added at 100 or 150 μM at three days after the start of the culture (day 3). Micrographs obtained are illustrated in FIG. 19. FIG. 19 illustrates micrographs obtained in the case where the Rac-1 inhibitor was 150 μM."}, "iPS cells: Tic (Np 39) [2]": {"test_system": "iPS cells: Tic (Np 39)", "experiment": "Influences of feeder cells on iPS cells: Rac-1 inhibitor added in culture on MEF feeder cells", "conditions": "Rac-1 inhibitor 50, 100, or 150 μM added at day 3, outer edge part without inhibitor", "method": "as §1, with “On feeder cells,” for “Synthemax Surface (trade name, manufactured by Corning Inc.) was used as a culture surface, and”, “seeded, and the” for “seeded thereover. The”\niPS cells: Repro Stem (trade name, manufactured by ReproCELL J, Inc.), 5 ng/mL FGF-2\nMicrographs obtained are illustrated in FIG. 17.\nNext, cells were cultured and observed in the same manners as those described above except that a Rac-1 inhibitor (trade name: NSC23766, Calbiochem brand), which is a migration inhibitor, was added at 50, 100, or 150 μM at three days after the start of the culture (day 3). The obtained micrographs are illustrated in FIG. 17.\nDilution of Rac-1 inhibitor: the Rac-1 inhibitor was diluted by using a medium (Repro Stem) (final concentration: 50 or 100 μM).\nFurther, bFGF (trade name, manufactured by ReproCELL, Inc., final concentration 5 ng/ml) was added thereto, and the Rac-1 inhibitor thus diluted was added to iPS cells."}}, "data": [{"compound": "CCN(CC)CCCC(C)Nc1nc(C)cc(Nc2ccc3nc(C)cc(N)c3c2)n1", "note": "(racemic) [Rac-1 inhibitor]", "values": [{"measurement": "Part of the colony where deviated cells grew", "setting": "iPS cells", "value": "Deviated cells grew in the center part of a colony"}, {"measurement": "Part of the colony where deviated cells emerge", "setting": "iPS cells: Tic (Np 39) [1]", "value": "allowed deviated cells to emerge in the center part of a colony"}, {"measurement": "Part of the colony where deviated cells emerge", "setting": "iPS cells: Tic (Np 39) [2]", "value": "emerge in the center part of the colony"}]}]}
